The text below walks through data of patent US9132071B2, “Compositions containing quaternary ammonium compounds” (SANTEN SAS, priority 2006, dated 2015).

Data set [1] in a line: Emulsion zeta potential by electrophoretic mobility. Format: physicochemical. Particulars: 25° C., dilution 1:250. The procedure: Zeta potential can be measured by a zetameter such as Zetasizer 2000, Malvern Instruments Ltd, UK. The zeta potential of the emulsion droplet surface is determined by electrophoretic mobility. Measurements are performed at 25° C. following dilution at 1:250 of the emulsion in double distilled water. The electrophoretic mobility is converted into zeta potential values through the Smoluchowsky equation.

Data set [2] in a line: Emulsion droplet size by dynamic light scattering. Format: physicochemical. Particulars: 25° C., diluted in double distilled water. The procedure: Measurements are performed at 25° C. following dilution of the emulsion in double distilled water.
Data set [3] relates to white male New Zealand rabbits. Briefly: Ocular irritation, adaptation of the Draize test. Format: in vivo. The conditions noted are these: BAK C16 within an emulsion; 50 μL instilled, rabbit eye; FIG. 2. The procedure:
The ocular irritation of the emulsions and solutions has been evaluated using an adaptation of the Draize test on white male New Zealand rabbits (2.75-3.00 kg). Fifty μL of emulsion or solution were instilled unilaterally and 50 μL of NaCl 0.9% in the other eye of the three rabbits per group. General aspect assessment of the animals was performed (behavior, blinking, itching of the eye with forelegs) as well as eye tissue evaluation (conjunctiva, cornea, iris) after instillation, 1, 24, 48 and 72 hours. Observations were scored according to the Draize test protocol.

SMILES strings stand for the structures.

Take `CCCCCCCCCCCC[N+](C)(C)C.[Br-]` [ATAB C12, lauryl trimethyl ammonium bromide]: the figures for the Emulsions zeta potential in data set [1] (emulsion containing 0.0025% QA) and in data set [1] (emulsion containing 0.005% QA) were −35.5 mV and −14.6 mV, respectively.

Regarding `CCCCCCCCCCCCCCCC[N+](C)(C)C.[Br-]` [ATAB C16, cetyl trimethyl ammonium bromide], the Emulsion droplet size in data set [2] (emulsion containing 0.0025% QA) came out at 222 nm; in data set [2] (emulsion containing 0.005% QA) it was 212 nm. The Emulsions zeta potential entry in data set [1] (emulsion containing 0.0025% QA) is recorded as “+11.9 mV”; in data set [1] (emulsion containing 0.005% QA), “+20.2 mV”.

`CCCCCCCCCCCC[N+](C)(C)Cc1ccccc1` [BAK C12, benzododecinium chloride]: the Emulsion droplet size in data set [2] (emulsion containing 0.005% QA) is listed as 198 nm; in data set [2] (emulsion containing 0.01% QA), 263 nm; in data set [2] (emulsion containing 0.02% QA) it was 230 nm; in data set [2] (emulsion containing 0.04% QA), 225 nm; in data set [2] (emulsion containing 0.1% QA) it was 180 nm. In addition, the Emulsions zeta potential in data set [1] (emulsion containing 0.005% QA) is −6.9 mV; in data set [1] (emulsion containing 0.01% QA), “+4.2 mV”; in data set [1] (emulsion containing 0.02% QA) it was “+7.9 mV”; in data set [1] (emulsion containing 0.04% QA), “+16.8 mV”; in data set [1] (emulsion containing 0.1% QA), “+23.8 mV”.

Take `CCCCCCCCCCCCCC[N+](C)(C)Cc1ccccc1` [BAK C14, myristalkonium chloride]: the Emulsion droplet size is recorded as 204 nm in data set [2] (emulsion containing 0.0025% QA); 190 nm in data set [2] (emulsion containing 0.005% QA); 190 nm in data set [2] (emulsion containing 0.01% QA); 155 nm in data set [2] (emulsion containing 0.02% QA); 238 nm in data set [2] (emulsion containing 0.04% QA); 185 nm in data set [2] (emulsion containing 0.1% QA). Besides, the Emulsions zeta potential entry in data set [1] (emulsion containing 0.0025% QA) was “+11.4 mV”; in data set [1] (emulsion containing 0.005% QA) it was “+19.6 mV”; in data set [1] (emulsion containing 0.01% QA), “+22.9 mV”; in data set [1] (emulsion containing 0.02% QA), “+28.4 mV”; in data set [1] (emulsion containing 0.04% QA), “+39.3 mV”; in data set [1] (emulsion containing 0.1% QA), “+44.5 mV”.

On to `CCCCCCCCCCCCCCCC[N+](C)(C)Cc1ccccc1` [BAK C16, cetylkonium chloride], for which the Emulsion droplet size in data set [2] (emulsion containing 0.001% QA) is 220 nm; in data set [2] (emulsion containing 0.0025% QA), 210 nm; in data set [2] (emulsion containing 0.005% QA), 148 nm; in data set [2] (emulsion containing 0.01% QA) it was 180 nm; in data set [2] (emulsion containing 0.02% QA), 155 nm; in data set [2] (emulsion containing 0.04% QA), 188 nm. In data set [2] (emulsion containing 0.1% QA), the Emulsion droplet size turned out to be 183 nm. The Emulsions zeta potential result in data set [1] (emulsion containing 0.001% QA) is “+16.2 mV”; in data set [1] (emulsion containing 0.0025% QA), “+24.4 mV”; in data set [1] (emulsion containing 0.005% QA), “+31.4 mV”; in data set [1] (emulsion containing 0.01% QA), “+36.7 mV”; in data set [1] (emulsion containing 0.02% QA), “+44.1 mV”; in data set [1] (emulsion containing 0.04% QA) it was “+47.2 mV”. In addition, the Emulsions zeta potential entry in data set [1] (emulsion containing 0.1% QA) was “+48.9 mV”. The “Ocular irritation (toxicity), Draize score” value in data set [3] is reported as “unexpected decrease of its toxicity”.
